ChEMBL document CHEMBL4699462, “Prenylated Flavonoids from the Roots of Tephrosia rhodesica” (J Nat Prod, 2020)
pIC50: −log10 of the molar value.

Columns and labels:
[1] = test system: Plasmodium falciparum; experiment: Antiplasmodial activity against chloroquine-sensitive Plasmodium falciparum 3D7 infected in human erythrocytes assessed as inhibition of parasite growth incubated for 72 hrs by DAPI staining based fluorescence analysis; type: functional, organism-based; conditions: 3D7, Erythrocyte
[2] = test system: HEK293; experiment: Cytotoxicity against human HEK293 cells at 40 uM; type: cell-based; conditions: hek293, 40 µM
[3] = Cytotoxicity against human HEK293 cells assessed as cell death; type: cell-based; conditions: read-out: LD50 (the source's name)

SMILES | pIC50 [1] | Activity [2] | CC50 [3]
CC(C)=CCc1cc2c(cc1O)OC[C@@]1(O)c3cc4c(cc3O[C@@H]21)OCO4 | 4.99 | 27% | 
C=C(C)[C@H]1Cc2c(ccc3c2O[C@@H]2C(O)Oc4cc(OC)c(OC)cc4[C@@H]2C3=O)O1 (stereo partly drawn) | 5.07 |  | 10.9 µM
COc1cc(OC)c2c(c1CC=C(C)C)O[C@H](c1ccccc1)C[C@H]2OC | 5.13 | 87% | 
COc1cc(OC)c2c(c1CC=C(C)C)O[C@H](c1ccccc1)C[C@H]2O | 4.84 |  | 
CC(C)=CCC1(CC=C(C)C)C(=O)C(=O)C2=C1O[C@H](c1ccccc1)C[C@H]2O (relative stereo) | 5.15 | 101% | 
CC(C)=CCC1(CC=C(C)C)C(=O)[C@](O)(CC=C(C)C)C(=O)C2=C1O[C@H](c1ccccc1)C[C@H]2O (relative stereo) | 5.24 | 34% | 
CC(C)=CCC1(CC=C(C)C)C(=O)[C@@](O)(CC=C(C)C)C(=O)C2=C1O[C@H](c1ccccc1)C[C@H]2O (relative stereo) | 5.14 | 71% | 
